In patent US11311513B2, “Methods, agents, and compositions for the treatment of acute myeloid leukemia” (UNIVERSITY OF CINCINNATI, priority 2017, dated 2022):
Where two headings read alike, the source gives them in different places.

Experiments:
[1] = Maximum tolerated dose and median lethal dose; format: in vivo
[2] = system: 5hmC peak enrichment in the whole genome; test: Genome-wide 5hmC-seq in ML-2 AML cells; format: cell-based, human
Method: FIG. 12. […] 5hmC peak counts at different IDR cutoffs were shown. (b) Read density across 5hmC enriched regions. A unified catalog of 5hmC enriched regions was generated. Shown are heatmaps rank-ordered by reads per kilobase of exon model per million mapped reads (RPKM) of 5hmC-Seal samples minus that of the input samples. (c) Read density across all RefSeq genes. Shown are heatmaps of 5hmC read density changes across all RefSeq gene loci and 5 kb flanking regions (minus input values).
100 ng genomic DNA extracted from ML-2 cell were fragmented in 50 jiL Tagmentation buffer at 55° C. Fragmented DNA was purified by Zymo DNA clean&concentrator Kit (Zymo Research, Tustin, Calif.). Then, the selective 5hmC chemical labeling was performed in 25 jiL glucosylation buffer (50 mM HEPES buffer pH 8.0, 25 mM MgCl2) containing above fragmented DNA, 100 μM N3-UDP-Glc, 1 μM β-GT, and incubated at 37° C. for 2 hr. […] The libraries were quantified by a Qubit fluorometer (Life Technologies) and sequenced on an Illumina HiSEQ4000 sequencer with paired-end 50-bp reads.
The gene network was analyzed with Ingenuity Pathway Analysis (Qiagen). […] For 5hmC sequencing analysis, illumina sequencing reads were mapped to UCSC hg19 human reference genome using bowtie program. Only uniquely mapped reads were retained for the following data analysis. […]

[3] = target: STAT3 and the TET1 CpG island (Homo sapiens, UniProt P40763); test: Electrophoretic mobility shift assay (EMSA); format: biochemical
STAT3 and the TET1 CpG island, sequence (P40763 whole entry, species assumed): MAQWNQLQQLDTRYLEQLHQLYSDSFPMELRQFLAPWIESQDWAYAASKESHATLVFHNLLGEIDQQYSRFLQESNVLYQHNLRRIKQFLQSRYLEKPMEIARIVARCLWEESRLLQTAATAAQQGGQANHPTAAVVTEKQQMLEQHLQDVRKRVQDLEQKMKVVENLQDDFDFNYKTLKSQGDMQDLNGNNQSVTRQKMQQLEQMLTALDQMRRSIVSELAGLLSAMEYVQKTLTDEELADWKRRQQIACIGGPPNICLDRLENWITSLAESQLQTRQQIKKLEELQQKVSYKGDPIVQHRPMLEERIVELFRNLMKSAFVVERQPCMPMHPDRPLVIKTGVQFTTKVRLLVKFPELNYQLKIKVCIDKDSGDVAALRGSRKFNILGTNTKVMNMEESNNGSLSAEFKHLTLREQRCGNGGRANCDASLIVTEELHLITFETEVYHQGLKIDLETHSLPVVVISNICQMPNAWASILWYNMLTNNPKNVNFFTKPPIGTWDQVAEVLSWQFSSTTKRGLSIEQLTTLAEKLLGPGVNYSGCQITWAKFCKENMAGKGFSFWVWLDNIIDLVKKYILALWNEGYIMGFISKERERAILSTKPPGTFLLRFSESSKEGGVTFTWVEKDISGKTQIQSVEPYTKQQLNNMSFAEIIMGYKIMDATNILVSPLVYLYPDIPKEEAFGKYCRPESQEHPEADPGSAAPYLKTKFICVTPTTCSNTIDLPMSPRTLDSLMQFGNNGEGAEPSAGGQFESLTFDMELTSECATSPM
Method: EMSA was conducted with EMSA Assay Kit (Signosis, Santa Clara, Calif.) according to the manufacturer's protocol with minor modifications. Briefly, purified STAT3 protein was incubated with Biotin-labeled TET1-CPG probe (hot probe) and/or cold probe, and then protein/DNA complexes were separated on a non-denaturing polyacrylamide gel. Bands were detected using Streptavidin-HRP conjugate and a chemiluminescent substrate. The sequences of the TET1-CPG probe are: Forward: 5′ Biotin-[…]-3′ (SEQ ID NO: 11); Reverse: 5′ Biotin-[…]-3′ (SEQ ID NO: 12).

[4] = system: BM cells of leukemic mice with MLL-AF9 fusion (MA9-AML) or FLT3-ITD/NPM1^mut; test: MTS and apoptosis assays in BM cells of leukemic mice; format: cell-based; settings: 50 nM; 3 days
Method: FIG. 14. […] BM cells of leukemic mice with MLL-AF9 fusion (MA9-AML) or FLT3-ITD/NPM1^mut, and c-Kit^+ HSPCs from a pool of 6 healthy donor mice were cultured in liquid medium. […] MTS (a), apoptosis assays (b) and qPCR (c) were conducted 3 days after cell seeding or drug treatments. Error bar indicates SD of triplicate experiments.
These experiments were conducted as described previously (Jiang, X., et al., Blockade of miR-150 Maturation by MLL-Fusion/MYC/LIN-28 Is Required for MLL-Associated Leukemia, Cancer Cell 22:524-35 (2012); Li, Z., et al., miR-196b directly targets both HOXA9/MEIS1 oncogenes and FAS tumour suppressor in MLL-rearranged leukaemia, Nat Commun 2:688 (2012)) with ApoLive-Glo Multiplex Assay Kit, or CellTiter 96 AQueous Non-Radioactive Cell Proliferation Assay Kit (Promega, Madison, Wis.).

COc1cc(C(c2cc3c(cc2O)OCO3)N2CCCC2)cc(OC)c1OC (stereo not shown) [NSC-370284, 6-(1-Pyrrolidinyl(3,4,5-trimethoxyphenyl)methyl)-1,3-benzodioxol-5-ol]
LD50 ([1]; C57BL/6, mouse, in vivo, ip, C57BL/6, I.P., read-out: LD50): ~123 mg/kg | MTD ([1]; C57BL/6, mouse, in vivo, ip, mice, I.P., read-out: maximum tolerated dose): 65 to 85.6 mg/kg | Number of Death ([1]; I.P. 65 mg/kg, 10 exposed): 0 | Number of Death ([1]; I.P. 85.6 mg/kg, 10 exposed): 1 | Number of Death ([1]; I.P. 113.5 mg/kg, 10 exposed): 3 | Number of Death ([1]; I.P. 150 mg/kg, 10 exposed): 6 | Number of Death ([1]; I.P. 200 mg/kg, 10 exposed): 10 | reduction of 5hmC peak enrichment in the whole genome [2]: around 75% | association between STAT3 and the TET1 CpG island [3]: almost be completely blocked | viability of AML cells [4]: dramatically suppressed

CC(C)(C)c1cc(C(c2cc3c(cc2O)OCO3)N2CCOCC2)cc(C(C)(C)C)c1O (stereo not shown) [UC-514321, 6-{[4-Hydroxy-3,5-bis(2-methyl-2-propanyl)phenyl](4-morpholinyl)methyl}-1,3-benzodioxol-5-ol]
MTD ([1]; C57BL/6, mouse, in vivo, ip): 65 to 85.6 mg/kg | Number of Death ([1]; C57BL/6, mouse, in vivo, ip, 65 mg/kg): 0 | Number of Death ([1]; C57BL/6, mouse, in vivo, ip, 85.6 mg/kg): 1 | Number of Death ([1]; C57BL/6, mouse, in vivo, ip, 113.5 mg/kg): 2 | Number of Death ([1]; C57BL/6, mouse, in vivo, ip, 150 mg/kg): 7 | Number of Death ([1]; C57BL/6, mouse, in vivo, ip, 200 mg/kg): 10 | LD50 ([1]; C57BL/6, mouse, in vivo, ip, LD50): ~123 mg/kg | reduction of 5hmC peak enrichment in the whole genome [2]: around 75% | viability of AML cells [4]: dramatically suppressed
